Data as given in patent publication US7741354B2, “Inhibitors of glutaminyl cyclase” (Probiodrug AG, priority 2006, dated 2010).

Target: hQC (Homo sapiens, UniProt Q16769)
Assay: Fluorometric (fluorescent) assay of hQC inhibition, IC50
Type: biochemical
Conditions: hQC inhibition; read-out: IC50
Method in brief: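 Two coupled fluorometric formats at 30° C, pH 8.0 Tris/HCl with EDTA: H-Gln-βNA at 0.2 mM read at 320/410 nm, or H-Gln-AMC at varied levels read at 380/460 nm, each started by adding QC.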

Chain of hQC (Q16769 29-361): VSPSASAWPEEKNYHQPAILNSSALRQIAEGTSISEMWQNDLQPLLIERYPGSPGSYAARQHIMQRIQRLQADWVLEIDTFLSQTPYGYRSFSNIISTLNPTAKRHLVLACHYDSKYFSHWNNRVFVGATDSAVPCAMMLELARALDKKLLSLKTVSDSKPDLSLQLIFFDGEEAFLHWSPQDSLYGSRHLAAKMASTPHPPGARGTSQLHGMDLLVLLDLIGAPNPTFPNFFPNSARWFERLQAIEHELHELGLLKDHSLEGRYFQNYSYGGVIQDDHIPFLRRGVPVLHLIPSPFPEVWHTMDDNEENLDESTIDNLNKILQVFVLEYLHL

Compound	IC50 [µM]
Brc1cc(Br)cc(C(Nc2ccc3[nH]cnc3c2)c2nnnn2C(c2ccccc2)c2ccccc2)c1 (stereo not drawn) [compound 186, [(1-Benzhydryl-1H-tetrazol-5-yl)-(3,5-dibromo-phenyl)-methyl]-(1H-benzoimidazol-5-yl)-amine]	5.8
O=C(Cn1nnnc1C(Nc1ccc2[nH]cnc2c1)c1cc(Br)cc(Br)c1)NCCc1c[nH]c2ccccc12 (stereo not drawn) [compound 187, 2-{5-[(1H-Benzoimidazol-5-ylamino)-(3,5-dibromo-phenyl)-methyl]-tetrazol-1-yl}-N-[2-(1H-indol-3-yl)-ethyl]-acetamide]	1.3
Brc1cc(Br)cc(C(Nc2ccc3[nH]cnc3c2)c2nnnn2CCC(c2ccccc2)c2ccccc2)c1 (stereo not drawn) [compound 188, (1H-Benzoimidazol-5-yl)-{(3,5-dibromo-phenyl)-[1-(3,3-diphenyl-propyl)-1H-tetrazol-5-yl]-methyl}-amine]	4
Brc1cc(Br)cc(C(Nc2ccc3[nH]cnc3c2)c2nnnn2CCCCc2ccccc2)c1 (stereo not drawn) [compound 189, (1H-Benzoimidazol-5-yl)-{(3,5-dibromo-phenyl)-[1-(4-phenyl-butyl)-1H-tetrazol-5-yl]-methyl}-amine]	3.1
Brc1cc(Br)cc(C(Nc2ccc3[nH]cnc3c2)c2nnnn2Cc2ccccc2)c1 (stereo not drawn) [compound 190, (1H-Benzoimidazol-5-yl)-[(1-benzyl-1H-tetrazol-5-yl)-(3,5-dibromo-phenyl)-methyl]-amine]	1.3
Oc1ccc(C(Nc2ccc3[nH]cnc3c2)c2nnnn2Cc2ccc(Cl)cc2)cc1 (stereo not drawn) [compound 191, 4-{(1H-Benzoimidazol-5-ylamino)-[1-(4-chloro-benzyl)-1H-tetrazol-5-yl]-methyl}-phenol]	3.1
CCOC(=O)C1CCCCC1n1nnnc1C(Nc1ccc2[nH]cnc2c1)c1cccc(OC)c1 (stereo not drawn) [compound 192]	8.5
Oc1ccc(Cl)cc1C(Nc1ccc2[nH]cnc2c1)c1nnnn1C1CCCCC1 (stereo not drawn) [compound 193, 2-[(1H-Benzoimidazol-5-ylamino)-(1-cyclohexyl-1H-tetrazol-5-yl)-methyl]-4-chloro-phenol]	5.8
O=C1CCCN1CCCn1nnnc1C(Nc1ccc2[nH]cnc2c1)c1ccc(Br)cc1 (stereo not drawn) [compound 194, 1-(3-{5-[(1H-Benzoimidazol-5-ylamino)-(4-bromo-phenyl)-methyl]-tetrazol-1-yl}-propyl)-pyrrolidn-2-one]	8.5
CCOC(=O)C1CCCCC1n1nnnc1C(Nc1ccc2[nH]cnc2c1)c1cccc(C(=O)OC)c1 (stereo not drawn) [compound 195, 3-{(1H-Benzoimidazol-5-ylamino)-[1-(2-ethoxycarbonyl-cyclohexyl)-1H-tetrazol-5-yl]-methyl}-benzoic acid methyl ester]	5.8
CCOC(=O)C1CCCCC1n1nnnc1C(Nc1ccc2[nH]cnc2c1)c1c[nH]c2cc(C)ccc12 (stereo not drawn) [compound 196]	8.5
O=[N+]([O-])c1cc(C(Nc2ccc3[nH]cnc3c2)c2nnnn2Cc2ccc(Cl)cc2)ccc1Cl (stereo not drawn) [compound 197, (1H-Benzoimidazol-5-yl)-[[1-(4-chloro-benzyl)-1H-tetrazol-5-yl]-(4-chloro-3-nitro-phenyl)-methyl]-amine]	2.2
CCc1ccc(C(Nc2ccc3[nH]cnc3c2)c2nnnn2C2CCCCC2)cc1 (stereo not drawn) [compound 198, (1H-Benzoimidazol-5-yl)-[(1-cyclohexyl-1H-tetrazol-5-yl)-(4-ethyl-phenyl)-methyl]-amine]	4.9
O=C(Cn1nnnc1C(Nc1ccc2[nH]cnc2c1)c1ccc(Br)cc1)N1CCc2ccccc2C1 (stereo not drawn) [compound 199, 2-{5-[(1H-Benzoimidazol-5-ylamino)-(4-bromo-phenyl)-methyl]-tetrazol-1-yl}-1-(3,4-dihydro-1H-isoquinolin-2-yl)-ethanone]	2.2
O=C(Cn1nnnc1C(Nc1ccc2[nH]cnc2c1)c1ccc(Br)cc1)NCCc1c[nH]c2ccccc12 (stereo not drawn) [compound 200, 2-{5-[(1H-Benzoimidazol-5-ylamino)-(4-bromo-phenyl)-methyl]-tetrazol-1-yl}-N-[2-(1H-indol-3-yl)-ethyl]-acetamide]	2.2
Brc1ccc(C(Nc2ccc3[nH]cnc3c2)c2nnnn2Cc2cccnc2)cc1 (stereo not drawn) [compound 201, (1H-Benzoimidazol-5-yl)-[(4-bromo-phenyl)-(1-pyridin-3-ylmethyl-1H-tetrazol-5-yl)-methyl]-amine]	4
CCOC(=O)C1CCCCC1n1nnnc1C(CC(C)c1ccc(C)o1)Nc1ccc2[nH]cnc2c1 (stereo not drawn) [compound 202]	6.7
Brc1ccc(C(Nc2ccc3[nH]cnc3c2)c2nnnn2-c2ccccc2OCc2ccccc2)cc1 (stereo not drawn) [compound 203, (1H-Benzoimidazol-5-yl)-[[1-(2-benzyloxy-phenyl)-1H-tetrazol-5-yl]-(4-bromo-phenyl)-methyl]-amine]	2.2
CC(CC(Nc1ccc2[nH]cnc2c1)c1nnnn1-c1ccc(Oc2ccccc2)cc1)c1ccccc1 (stereo not drawn) [compound 204, (1H-Benzoimidazol-5-yl)-{1-[1-(4-phenoxy-phenyl)-1H-tetrazol-5-yl]-3-phenyl-butyl}-amine]	6.7
Clc1ccccc1Cn1nnnc1C(Nc1ccc2[nH]cnc2c1)c1ccc2nsnc2c1 (stereo not drawn) [compound 205]	2.2
O=[N+]([O-])c1ccc(-n2nnnc2C(Nc2ccc3[nH]cnc3c2)c2csc3ccccc23)cc1 (stereo not drawn) [compound 206]	8.5
Fc1cc(C(Nc2ccc3[nH]cnc3c2)c2nnnn2CCc2cccs2)ccc1Cl (stereo not drawn) [compound 207, (1H-Benzoimidazol-5-yl)-{(4-chloro-3-fluoro-phenyl)-[1-(2-thiophen-2-yl-ethyl)-1H-tetrazol-5-yl]-methyl}-amine]	4
CCCOc1cccc(C(Nc2ccc3[nH]cnc3c2)c2nnnn2C2CCCCC2C(=O)OCC)c1 (stereo not drawn) [compound 208]	2.2
COc1ccc(C(Nc2ccc3[nH]cnc3c2)c2nnnn2CC(=O)N2CCc3ccccc3C2)cc1 (stereo not drawn) [compound 209, 2-{5-[(1H-Benzoimidazol-5-ylamino)-(4-methoxy-phenyl)-methyl]-tetrazol-1-yl}-1-(3,4-dihydro-1H-isoquinolin-2-yl)-ethanone]	4
COc1ccc(C(Nc2ccc3[nH]cnc3c2)c2nnnn2-c2ccccc2OCc2ccccc2)cc1 (stereo not drawn) [compound 210, (1H-Benzoimidazol-5-yl)-[[1-(2-benzyloxy-phenyl)-1H-tetrazol-5-yl]-(4-methoxy-phenyl)-methyl]-amine]	2.2
c1ccc(-c2ccc(C(Nc3ccc4[nH]cnc4c3)c3nnnn3CCc3cccs3)cc2)nc1 (stereo not drawn) [compound 211, (1H-Benzoimidazol-5-yl)-{(4-pyridin-2-yl-phenyl)-[1-(2-thiophen-2-yl-ethyl)-1H-tetrazol-5-yl]-methyl}-amine]	2.2
CC(C)(C)OC(=O)Cn1nnnc1C(Nc1ccc2[nH]cnc2c1)c1ccc(-c2ccccn2)cc1 (stereo not drawn) [compound 212, {5-[(1H-Benzoimidazol-5-ylamino)-(4-pyridin-2-yl-phenyl)-methyl]-tetrazol-1-yl}-acetic acid tert-butyl ester]	2.2
